Test results published in patent US20250042925A1, “Improved Compositions and Methods for Targeting Mitochondria in Cancer Cells” (The Medical College of Wisconsin, Inc., priority 2021, published 2025).
“Also recorded” adds a separate entry of the source.

Tests used:
[1] = tested on: KPC1242 murine pancreatic cancer; assay: Tumor growth in KPC1242 engrafted mice; assay type: in vivo; details: 1 mg pCF3-MMe, 5 days on and 2 days off, from 17 days after engraftment
Procedure: FIGS. 6A-6I show pCF3-MMe inhibits tumor growth with enhanced biosafety relative to MMe. C57BL/6J mice were treated with 1 mg MMe, 1 mg pCF3-MMe, 1 mg MMe, 250 μg MMe, 100 μg MMe, 50 μg MMe, or 25 μg MMe for 6 hours (FIG. 6A) or 5 days (FIG. 6D). Kaplan-Meier survival curve of mice treated for 6 hours (FIG. 6B) or 5 days (FIG. 5E), n=3-5. Numbers of mice surviving over time after a single injection (FIG. 6C) or 5 repeated doses (FIG. 6F). Significance was determined using a Mantel-Cox test (*, p<0.05; **, p<0.01). KPC1242 murine pancreatic cancer engrafted mice were treated with 1 mg pCF3-MMe or vehicle 5 days on and 2 days off (FIG. 6G). […] Tumor volume was measured ex vivo from vehicle and pCF3-MMe-treated mice (FIG. 6I). […] Significant differences were determined by Student's t-test (*, p<0.05).
Given the strong safety shown from a single injection, further studies were conducted to determine if mice tolerated repeated injection using our published treatment schedule by injecting non-tumor-bearing mice daily for 5 consecutive days with doses ranging from as little as 25 μg/mouse to as much as 1 mg/mouse 20 (FIG. 6D). […] Taken together, trifluoromethylation of TPP^+ improves the reproducible detection, quantitative measurement, and safety profile of TPP^+-conjugated compounds while retaining potent anti-tumor effects in vivo. […]

[2] = Quantitative 19F-NMR of compound persistence in tumor, blood and liver; assay type: in vivo, mice
Procedure: To validate ^19F-NMR as a viable detection approach, the persistence of pCF3-MMe in tumors was analyzed. KPC1242 engrafted mice were administered 1 mg/mouse pCF3-MMe starting 12 days after implantation. […] We next designed a quantitative NMR approach to measure the in vivo persistence of pCF3-MMe. First, serial dilutions of known concentrations of pCF3-MMe were prepared, and the intensity of the NMR peaks at a set scan number (n=64) was used to create a standard curve. Next, a one-phase decay least-squares fit equation was generated to calculate the amount of pCF3-MMe at each time point using the standardized scan number.
Cells (1×10^7 cells/10 cm dish) were allowed to adhere overnight and then treated with varying concentrations of mitochondria-targeted compounds. Compounds were extracted using multiple methods and optimized for detection and quantification: A) Cells or tumors were placed in a dry ice ethanol bath followed by 80% v/v MeOH in water. Cells were placed on a dry ice ethanol bath on an orbital shaker for 20 minutes, and then cells were collected and centrifuged at 10,000×g; B) Post-treatment cells were lifted with TrypLE (Gibco, Cat #11558856) and centrifuged, then compound was extracted from the cells or tumors with 9:1 CHCl3:H2O, CH2Cl2, or 1:1 MeCN:H2O. Following extraction, solvents were evaporated using a Biotage V-10 Touch (Uppsala, Sweden), and before NMR acquisition, samples were resuspended in an equal volume of DMSO-d6.
^19F 1D-NMR spectra were collected on a Bruker Avance-III 500 MHz NMR spectrometer equipped with a 1H&^19F/13C/15N-TCI cryoprobe. […] To evaluate pCF3-MMe concentrations in biological samples, a standard curve was generated using pCF3-MMe concentrations of 0.25, 0.50, 0.75, 1.0, 1.25, and 1.5 mg/mL, and the resulting peak intensities were analyzed by linear regression. […]
All animal studies were approved by the Institutional Animal Care and Use Committees at the Medical College of Wisconsin. […] Tumors were excised, and volume (length×width×depth=mm^3) was measured post-mortem using calipers. […]

## N=C(N)NC(=N)NCCCCCCCCCC[P+](c1ccc(C(F)(F)F)cc1)(c1ccc(C(F)(F)F)cc1)c1ccc(C(F)(F)F)cc1.[Br-] [pCF3-MMe, (10-(3-carbamimidoylguanidino)decyl)tris(4-(trifluoromethyl)phenyl)phosphonium bromide]
[1]
  tumor size and volume: significantly decreased tumor size and volume
[2]; 2 hours after injection, 1 mg
  detection in the blood and liver: undetectable; also recorded: not detected
[2]; 6 hours after injection
  detection in the blood and liver: barely detectable above the signal-to-noise ratio
[2]; 24 hours after injection, 1 mg/mouse
  levels within the tumors: measurable levels
